Reference: the supplement of paper PMC10307832

Assays:
Experiment in all cases: relative viability (nuclei count vs DMSO), 5 days (fraction); higher = more cells survive
QS11 + Luminespib = compound: C1CC2=C(C1)C=C(C=C2)OC3=NC(=C4C(=N3)N(C=N4)CC5=CC=C(C=C5)C6=CC=CC=C6)N[C@@H](CC7=CC=CC=C7)CO [QS11] + CCNC(=O)c1noc(-c2cc(C(C)C)c(O)cc2O)c1-c1ccc(CN2CCOCC2)cc1 [Luminespib] (partner 0.01 µM)
Summary of the method: (§1)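 After 5 days of treatment, lung cancer cells in 1536-well plates were fixed and stained in a single step (final 0.05% Triton X-100, 1% formaldehyde, 1 ug/ml Hoechst) and their nuclei counted on 4× images. Treatment had been applied by pin tool the day after seeding as one drug alone or as a fixed anchor-drug dose with five library-drug doses (not always all listed) in √10 steps. Relative viability is the nuclei count of treated wells divided by that of vehicle wells, and values are medians of duplicate plates.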

QS11 + Crizotinib = compound: C1CC2=C(C1)C=C(C=C2)OC3=NC(=C4C(=N3)N(C=N4)CC5=CC=C(C=C5)C6=CC=CC=C6)N[C@@H](CC7=CC=CC=C7)CO [QS11] + C[C@@H](Oc1cc(-c2cnn(C3CCNCC3)c2)cnc1N)c1c(Cl)ccc(F)c1Cl [Crizotinib] (partner 1 µM)
Summary of the method: as §1

AZ628 + Lapatinib = compound: CC1=C(C=C(C=C1)NC(=O)C2=CC(=CC=C2)C(C)(C)C#N)NC3=CC4=C(C=C3)N=CN(C4=O)C [AZ628] + CS(=O)(=O)CCNCc1ccc(-c2ccc3ncnc(Nc4ccc(OCc5cccc(F)c5)c(Cl)c4)c3c2)o1 [Lapatinib] (partner 2 µM)
Summary of the method: as §1

QS11 + AZD7762 = compound: C1CC2=C(C1)C=C(C=C2)OC3=NC(=C4C(=N3)N(C=N4)CC5=CC=C(C=C5)C6=CC=CC=C6)N[C@@H](CC7=CC=CC=C7)CO [QS11] + NC(=O)Nc1cc(-c2cccc(F)c2)sc1C(=O)N[C@H]1CCCNC1 [AZD7762] (partner 0.2 µM)
Summary of the method: as §1

| Cell Line | relative viability (QS11 + Luminespib; first compound 0.08 µM) | relative viability (QS11 + Luminespib; first compound 0.253 µM) | relative viability (QS11 + Luminespib; first compound 0.8 µM) | relative viability (QS11 + Luminespib; first compound 2.53 µM) | relative viability (QS11 + Luminespib; first compound 8 µM) | relative viability (QS11 + Crizotinib; first compound 0.08 µM) | relative viability (QS11 + Crizotinib; first compound 0.253 µM) | relative viability (QS11 + Crizotinib; first compound 0.8 µM) | relative viability (QS11 + Crizotinib; first compound 2.53 µM) | relative viability (QS11 + Crizotinib; first compound 8 µM) | relative viability (AZ628 + Lapatinib; first compound 0.08 µM) | relative viability (AZ628 + Lapatinib; first compound 0.253 µM) | relative viability (AZ628 + Lapatinib; first compound 0.8 µM) | relative viability (AZ628 + Lapatinib; first compound 2.53 µM) | relative viability (AZ628 + Lapatinib; first compound 8 µM) | relative viability (QS11 + AZD7762; first compound 0.08 µM) | relative viability (QS11 + AZD7762; first compound 0.253 µM) | relative viability (QS11 + AZD7762; first compound 0.8 µM) | relative viability (QS11 + AZD7762; first compound 2.53 µM) | relative viability (QS11 + AZD7762; first compound 8 µM) |
| --- | --- | --- | --- | --- | --- | --- | --- | --- | --- | --- | --- | --- | --- | --- | --- | --- | --- | --- | --- | --- |
| NCI-H1563 | 0.59 | 0.541 | 0.513 | 0.532 | 0.452 | 0.836 | 0.937 | 0.925 | 0.86 | 0.814 | 1.11 | 0.965 | 1.07 | 0.868 | 0.939 | – | – | – | – | – |
| NCI-H1623 | 0.529 | 0.705 | 0.486 | 0.479 | 0.503 | – | – | – | – | – | – | – | – | – | – | – | – | – | – | – |
| NCI-H1648 | – | – | – | – | – | – | – | – | – | – | – | – | – | – | – | 0.727 | 0.741 | 0.747 | 0.865 | 0.544 |
| NCI-H1650 | 0.193 | 0.209 | 0.201 | 0.192 | 0.216 | 0.994 | 0.843 | 0.868 | 0.986 | 0.894 | 1.24 | 0.795 | 0.79 | 0.498 | 0.68 | – | – | – | – | – |
| NCI-H2009 | 1.01 | 1.15 | 0.823 | 0.905 | 0.935 | 1.02 | 1.09 | 0.882 | 1.03 | 0.791 | 0.548 | 0.799 | 0.469 | 0.715 | 0.294 | – | – | – | – | – |
| NCI-H2023 | 0.789 | 0.916 | 0.554 | 0.624 | 0.814 | 0.774 | 0.537 | 0.586 | 0.641 | 0.648 | 0.914 | 0.859 | 0.914 | 0.763 | 0.689 | – | – | – | – | – |
| NCI-H2228 | 0.0998 | 0.191 | 0.154 | 0.14 | 0.145 | 0.425 | 0.467 | 0.457 | 0.356 | 0.41 | 1.11 | 1.13 | 0.784 | 0.9 | 1.17 | – | – | – | – | – |
| SK-LU-1 | 0.21 | 0.192 | 0.211 | 0.223 | 0.211 | 1.1 | 0.822 | 0.63 | 0.544 | 0.785 | 0.498 | 0.705 | 0.755 | 0.834 | 0.603 | – | – | – | – | – |
| SK-MES-1 | 0.553 | 0.927 | 0.685 | 0.883 | 0.823 | 1.12 | 0.98 | 0.993 | 0.977 | 0.929 | 0.475 | 0.501 | 0.479 | 0.473 | 0.437 | – | – | – | – | – |
| SW 1573 | 0.239 | 0.239 | 0.198 | 0.21 | 0.235 | 0.802 | 0.796 | 0.817 | 0.629 | 0.876 | 0.997 | 0.964 | 0.283 | 0.884 | 0.874 | – | – | – | – | – |
| UMC-11 | 1.01 | 1.13 | 0.995 | 1.27 | 1.12 | 0.724 | 0.616 | 0.653 | 0.679 | 0.686 | 1.05 | 0.903 | 0.95 | 0.9 | 0.968 | – | – | – | – | – |
